ChEMBL document CHEMBL1667751, “Synthesis and antimicrobial activity of highly functionalised novel β-lactam grafted spiropyrrolidines and pyrrolizidines” (2011)

Tests used:
[1] = tested on: Proteus vulgaris; test: Antibacterial activity against Proteus vulgaris at 100 ug/ml after 24 hrs agar diffusion method; assay type: functional; conditions: read-out: DIZ
[2] = tested on: Proteus mirabilis; test: Antibacterial activity against Proteus mirabilis at 100 ug/ml after 24 hrs agar diffusion method; assay type: functional; conditions: read-out: DIZ
[3] = tested on: Proteus vulgaris; test: Antibacterial activity against Proteus vulgaris at 25 ug/ml after 24 hrs agar diffusion method; assay type: functional; conditions: read-out: DIZ
[4] = tested on: Proteus mirabilis; test: Antibacterial activity against Proteus mirabilis at 75 ug/ml after 24 hrs agar diffusion method; assay type: functional; conditions: read-out: DIZ
[5] = tested on: Proteus vulgaris; test: Antibacterial activity against Proteus vulgaris at 50 ug/ml after 24 hrs agar diffusion method; assay type: functional; conditions: read-out: DIZ
[6] = tested on: Staphylococcus aureus; test: Antibacterial activity against Staphylococcus aureus at 50 ug/ml after 24 hrs agar diffusion method; assay type: functional; conditions: read-out: DIZ
[7] = tested on: Staphylococcus aureus; test: Antibacterial activity against Staphylococcus aureus at 75 ug/ml after 24 hrs agar diffusion method; assay type: functional; conditions: read-out: DIZ
[8] = tested on: Proteus vulgaris; test: Antibacterial activity against Proteus vulgaris at 75 ug/ml after 24 hrs agar diffusion method; assay type: functional; conditions: read-out: DIZ
[9] = tested on: Proteus mirabilis; test: Antibacterial activity against Proteus mirabilis at 50 ug/ml after 24 hrs agar diffusion method; assay type: functional; conditions: read-out: DIZ
[10] = tested on: Staphylococcus aureus; test: Antibacterial activity against Staphylococcus aureus at 100 ug/ml after 24 hrs agar diffusion method; assay type: functional; conditions: read-out: DIZ
[11] = tested on: Proteus mirabilis; test: Antibacterial activity against Proteus mirabilis at 25 ug/ml after 24 hrs agar diffusion method; assay type: functional; conditions: read-out: DIZ
[12] = tested on: Staphylococcus aureus; test: Antibacterial activity against Staphylococcus aureus at 25 ug/ml after 24 hrs agar diffusion method; assay type: functional; conditions: read-out: DIZ
[13] = tested on: Salmonella typhi; test: Antibacterial activity against Salmonella typhi at 25 ug/ml after 24 hrs agar diffusion method; assay type: functional, Salmonella enterica subsp. enterica serovar Typhi; conditions: Salmonella enterica, read-out: DIZ
[14] = tested on: Salmonella typhi; test: Antibacterial activity against Salmonella typhi at 75 ug/ml after 24 hrs agar diffusion method; assay type: functional, Salmonella enterica subsp. enterica serovar Typhi; conditions: Salmonella enterica, read-out: DIZ
[15] = tested on: Salmonella typhi; test: Antibacterial activity against Salmonella typhi at 50 ug/ml after 24 hrs agar diffusion method; assay type: functional, Salmonella enterica subsp. enterica serovar Typhi; conditions: Salmonella enterica, read-out: DIZ
[16] = tested on: Salmonella typhi; test: Antibacterial activity against Salmonella typhi at 100 ug/ml after 24 hrs agar diffusion method; assay type: functional, Salmonella enterica subsp. enterica serovar Typhi; conditions: Salmonella enterica, read-out: DIZ

SMILES	zone of inhibition at 100 µg/mL [1]	zone of inhibition at 100 µg/mL [2]	zone of inhibition at 25 µg/mL [3]	zone of inhibition at 75 µg/mL [4]	zone of inhibition at 50 µg/mL [5]	zone of inhibition at 50 µg/mL [6]	zone of inhibition at 75 µg/mL [7]	zone of inhibition at 75 µg/mL [8]	zone of inhibition at 50 µg/mL [9]	zone of inhibition at 100 µg/mL [10]	zone of inhibition at 25 µg/mL [11]	zone of inhibition at 25 µg/mL [12]	zone of inhibition at 25 µg/mL [13]	zone of inhibition at 75 µg/mL [14]	zone of inhibition at 50 µg/mL [15]	zone of inhibition at 100 µg/mL [16]
CCOC(=O)[C@@H]1[C@@H]([C@H]2[C@@H](Oc3ccccc3)C(=O)N2c2ccc(OC)cc2)C2CCCN2[C@@]12C(=O)c1cccc3cccc2c13 (some centres not stated)	20 mm	20 mm	9 mm	16 mm	11 mm	11 mm	14 mm	16 mm	13 mm	18 mm	10 mm					
CCOC(=O)[C@@H]1[C@@H]([C@H]2[C@@H](c3ccccc3)C(=O)N2c2ccc(OC)cc2)C2CCCN2[C@@]12C(=O)c1cccc3cccc2c13 (some centres not stated)	20 mm	18 mm		14 mm	12 mm	14 mm	19 mm	17 mm	11 mm	21 mm	9 mm	9 mm				
CCOC(=O)[C@@H]1[C@@H]([C@H]2[C@@H](c3ccccc3)C(=O)N2c2ccc(OC)cc2)C2CCCN2C12C(=O)c1ccccc1C2=O (some centres not stated)	24 mm	23 mm	12 mm	16 mm	17 mm	13 mm	16 mm	20 mm	15 mm	28 mm	10 mm	9 mm	9 mm	14 mm	12 mm	20 mm
CCOC(=O)[C@@H]1[C@@H]([C@H]2[C@@H](Oc3ccccc3)C(=O)N2c2ccc(OC)cc2)CN(C)[C@@]12C(=O)c1cccc3cccc2c13	20 mm	20 mm	9 mm	15 mm	11 mm	9 mm	15 mm	15 mm	11 mm	19 mm	9 mm		9 mm	14 mm	11 mm	16 mm
CN(C)[C@@H]1C(O)=C(C(N)=O)C(=O)[C@@]2(O)C(O)=C3C(=O)c4c(O)cccc4[C@@](C)(O)[C@H]3C[C@@H]12 [TETRACYCLINE]	> 40 mm	> 40 mm	18 mm	28 mm	24 mm	22 mm	28 mm	28 mm	24 mm	> 40 mm	18 mm	18 mm	18 mm	28 mm	22 mm	> 40 mm
CCOC(=O)[C@@H]1[C@@H]([C@H]2[C@@H](c3ccccc3)C(=O)N2c2ccc(OC)cc2)CN(C)[C@@]12C(=O)c1cccc3cccc2c13	21 mm	18 mm		13 mm	10 mm	10 mm	15 mm	15 mm	9 mm	21 mm				13 mm	11 mm	18 mm
CCOC(=O)[C@@H]1[C@@H]([C@H]2[C@@H](c3ccccc3)C(=O)N2c2ccc(OC)cc2)C2CCCN2[C@]12C(=O)Nc1ccccc12 (some centres not stated)	> 40 mm	32 mm	13 mm	21 mm	21 mm	16 mm	21 mm	25 mm	18 mm	31 mm	14 mm	9 mm	11 mm	18 mm	14 mm	26 mm
